Calls of active or inactive are those of the source. The rule behind the calls is not given here.
Tested on: CCRIS mutagenicity, Ames/micronucleus/aberration tests
Assay: CCRIS mutagenicity studies
[1] = Test System: AMES SALMONELLA TYPHIMURIUM, Strain/Indicator: TA92, Metabolic Activation: NONE, Method: STANDARD PLATE
[2] = Test System: AMES SALMONELLA TYPHIMURIUM, Strain/Indicator: TA98, Metabolic Activation: NONE, Method: STANDARD PLATE
[3] = Test System: AMES SALMONELLA TYPHIMURIUM, Strain/Indicator: TA1535, Metabolic Activation: NONE, Method: STANDARD PLATE
[4] = Test System: AMES SALMONELLA TYPHIMURIUM, Strain/Indicator: TA1538, Metabolic Activation: NONE, Method: STANDARD PLATE
[5] = Test System: UDS RAT HEPATOCYTES, Strain/Indicator: THYMIDINE INCORPORATION, Metabolic Activation: NONE, Method: AUTORADIOGRAPHY
[6] = Test System: AMES SALMONELLA TYPHIMURIUM, Strain/Indicator: TA100, Metabolic Activation: NONE, Method: STANDARD PLATE

Measured: mutagenic call

O=C1OC(O)C(C(Cl)Cl)=C1Cl (stereo not given)
inactive: Test System: AMES SALMONELLA TYPHIMURIUM, Strain/Indicator: RSJ100, Metabolic Activation: NONE, Method: PREINCUBATION inactive; negative | Test System: AMES SALMONELLA TYPHIMURIUM, Strain/Indicator: RSJ100, Metabolic Activation: RAT LIVER S-9, Method: PREINCUBATION inactive; negative | Test System: AMES SALMONELLA TYPHIMURIUM, Strain/Indicator: TA98, Metabolic Activation: RAT LIVER S-9, AROCLOR 1254, Method: STANDARD PLATE inactive; negative | Test System: AMES SALMONELLA TYPHIMURIUM, Strain/Indicator: TA98, Metabolic Activation: RAT, LIVER, S-9, PHENOBARBITAL AND 5,6-BENZOFLAVONE, Method: PREINCUBATION inactive; negative | Test System: AMES SALMONELLA TYPHIMURIUM, Strain/Indicator: TA100, Metabolic Activation: RAT LIVER S-9, AROCLOR 1254, Method: STANDARD PLATE inactive; negative | Test System: AMES SALMONELLA TYPHIMURIUM, Strain/Indicator: TA100, Metabolic Activation: RAT LIVER S-9, Method: PREINCUBATION inactive; negative | Test System: AMES SALMONELLA TYPHIMURIUM, Strain/Indicator: TA100, Metabolic Activation: RAT, LIVER, S-9, PHENOBARBITAL AND 5,6-BENZOFLAVONE, Method: PREINCUBATION inactive; negative | Test System: CHINESE HAMSTER V-79, Strain/Indicator: V-79 (HGPRT), Metabolic Activation: NONE inactive; negative | Test System: E. COLI, Strain/Indicator: CL106P, Metabolic Activation: NONE, Method: PREINCUBATION inactive; negative | Test System: E. COLI, Strain/Indicator: WP2, Metabolic Activation: NONE, Method: PREINCUBATION inactive; negative | Test System: E. coli, Strain/Indicator: XL-1 Blue MRA P2 (Spi), Method: Standard plate inactive; negative | Test System: E. coli, Strain/Indicator: YG6020 (Gpt)/6-Thioguanine, Method: Standard plate inactive; negative | Test System: UDS MOUSE HEPATOCYTES, Strain/Indicator: THY INCORP, Metabolic Activation: IN VIVO, Method: AUTORADIOGRAPHY inactive; negative
active: [1] active; positive | Test System: AMES SALMONELLA TYPHIMURIUM, Strain/Indicator: TA97, Metabolic Activation: NONE, Method: STANDARD PLATE active; positive | Test System: AMES SALMONELLA TYPHIMURIUM, Strain/Indicator: TA98, Metabolic Activation: NONE, Method: PREINCUBATION active; positive | [2] active; positive | Test System: AMES SALMONELLA TYPHIMURIUM, Strain/Indicator: TA98, Metabolic Activation: RAT LIVER S-9, Method: PREINCUBATION active; positive | Test System: AMES SALMONELLA TYPHIMURIUM, Strain/Indicator: TA100, Metabolic Activation: NONE, Method: PREINCUBATION active; positive | Test System: AMES SALMONELLA TYPHIMURIUM, Strain/Indicator: TA100, Metabolic Activation: RAT, LIVER, S-9, AROCLOR 1254, Method: STANDARD PLATE active; positive | Test System: AMES SALMONELLA TYPHIMURIUM, Strain/Indicator: TA102, Metabolic Activation: NONE, Method: STANDARD PLATE active; positive | [3] active; positive | [4] active; positive | Test System: AMES SALMONELLA TYPHIMURIUM, Strain/Indicator: YG7112, Metabolic Activation: NONE, Method: PREINCUBATION active; positive | Test System: AMES SALMONELLA TYPHIMURIUM, Strain/Indicator: YG7113, Metabolic Activation: NONE, Method: PREINCUBATION active; positive | Test System: AMES SALMONELLA TYPHIMURIUM, Strain/Indicator: YG7119, Metabolic Activation: NONE, Method: PREINCUBATION active; positive | Test System: Ames Salmonella typhimurium, Strain/Indicator: TA100, Metabolic Activation: None, Method: Preincubation active; positive | Test System: Ames Salmonella typhimurium, Strain/Indicator: TA104, Metabolic Activation: None, Method: Plate incorporation active; positive | Test System: Ames Salmonella typhimurium, Strain/Indicator: TA1975P, Metabolic Activation: None, Method: Preincubation active; positive (at higher doses) | Test System: CHINESE HAMSTER OVARY, Strain/Indicator: CHO-KTL3 (HPRT)/6-THIOGUANINE, Metabolic Activation: NONE active; positive | Test System: E. COLI, Strain/Indicator: CL101P, Metabolic Activation: NONE, Method: PREINCUBATION active; positive | Test System: E. COLI, Strain/Indicator: CL102P, Metabolic Activation: NONE, Method: PREINCUBATION active; positive | Test System: E. COLI, Strain/Indicator: CL103P, Metabolic Activation: NONE, Method: PREINCUBATION active; positive | Test System: E. COLI, Strain/Indicator: CL104P, Metabolic Activation: NONE, Method: PREINCUBATION active; positive | Test System: E. COLI, Strain/Indicator: CL105P, Metabolic Activation: NONE, Method: PREINCUBATION active; positive | Test System: E. COLI, Strain/Indicator: WP2 UVRA, Metabolic Activation: NONE, Method: PREINCUBATION active; positive | Test System: HUMAN H1A1V2 CELLS, Strain/Indicator: TK LOCUS, Metabolic Activation: NONE, Method: SUSPENSION/PLATE active; positive | Test System: HUMAN LYMPHOBLASTOID CELLS, Strain/Indicator: AHH-1 CELLS (TK+/TK-), Metabolic Activation: NONE, Method: SUSPENSION/PLATE active; positive | Test System: HUMAN LYMPHOBLASTOID CELLS, Strain/Indicator: MCL-5 CELLS (TK+/TK-), Metabolic Activation: NONE, Method: SUSPENSION/PLATE active; positive | Test System: MOUSE LYMPHOMA, Strain/Indicator: L5178Y (TK+/TK-), Metabolic Activation: NONE, Method: SUSPENSION/PLATE active; positive | Test System: UDS HUMAN HEPATOCYTES, Strain/Indicator: THY INCORP, Metabolic Activation: NONE, Method: AUTORADIOGRAPHY active; positive | Test System: UDS MOUSE HEPATOCYTES, Strain/Indicator: THY INCORP, Metabolic Activation: NONE, Method: AUTORADIOGRAPHY active; positive | Test System: UDS RAT HEPATOCYTES, Strain/Indicator: THY INCORP, Metabolic Activation: NONE, Method: AUTORADIOGRAPHY active; positive | [5] active; positive

Cc1c(/C=N/OCc2ccc(Cl)cc2Cl)c2cc([N+](=O)[O-])ccc2n1Cc1ccc(Cl)cc1
inactive: [2] inactive; negative | Test System: AMES SALMONELLA TYPHIMURIUM, Strain/Indicator: TA98, Metabolic Activation: RAT, LIVER, S-9, PHENOBARBITAL AND BETA-NAPHTHOFLAVONE, Method: STANDARD PLATE inactive; negative | [6] inactive; negative | Test System: AMES SALMONELLA TYPHIMURIUM, Strain/Indicator: TA100, Metabolic Activation: RAT, LIVER, S-9, PHENOBARBITAL AND BETA-NAPHTHOFLAVONE, Method: STANDARD PLATE inactive; negative

CC(C)OC(=O)COc1ccc(Cl)cc1Cl
inactive: [2] inactive; negative | Test System: AMES SALMONELLA TYPHIMURIUM, Strain/Indicator: TA98, Metabolic Activation: RAT LIVER S-9, AROCLOR 1254, 10%, Method: STANDARD PLATE inactive; negative | [6] inactive; negative | Test System: AMES SALMONELLA TYPHIMURIUM, Strain/Indicator: TA100, Metabolic Activation: RAT LIVER S-9, AROCLOR 1254, 10%, Method: STANDARD PLATE inactive; negative | [3] inactive; negative | Test System: AMES SALMONELLA TYPHIMURIUM, Strain/Indicator: TA1535, Metabolic Activation: RAT LIVER S-9, AROCLOR 1254, 10%, Method: STANDARD PLATE inactive; negative | Test System: AMES SALMONELLA TYPHIMURIUM, Strain/Indicator: TA1537, Metabolic Activation: NONE, Method: STANDARD PLATE inactive; negative | Test System: AMES SALMONELLA TYPHIMURIUM, Strain/Indicator: TA1537, Metabolic Activation: RAT LIVER S-9, AROCLOR 1254, 10%, Method: STANDARD PLATE inactive; negative | [4] inactive; negative | Test System: AMES SALMONELLA TYPHIMURIUM, Strain/Indicator: TA1538, Metabolic Activation: RAT LIVER S-9, AROCLOR 1254, 10%, Method: STANDARD PLATE inactive; negative | [5] inactive; negative

CC12CCC(CC1=O)C2(C)C (stereo not given) (tested in a mixture with another compound)
active: End Point: IN VITRO CHROMOSOMAL ABERRATIONS, Test System: SYRIAN HAMSTER EMBRYO (SHE) CELLS, Metabolic Activation: NONE active; positive (structural changes)
inactive: End Point: In vitro chromosomal aberrations, Test System: D824 human dental pulp cells, Metabolic Activation: Rat, Liver, Postmitochondrial supernate (5%) inactive; negative

CC(C)(C)N.CC(C)(C)N.[Cl][Pt][Cl]
inactive: [1] inactive; negative
active: [2] active; positive | [6] active; positive | Test System: AMES SALMONELLA TYPHIMURIUM, Strain/Indicator: TA2410, Metabolic Activation: NONE, Method: STANDARD PLATE active; positive

From PubChem BioAssay AID1259407 (Chemical Carcinogenesis Research Information System (CCRIS), 2018)
